Results published in publication PMC8910004, “Hexokinase 2 Inhibition and Biological Effects of BNBZ and Its Derivatives: The Influence of the Number and Arrangement of Hydroxyl Groups” (International Journal of Molecular Sciences, 2022).

Experiments:
Hexokinase 2 (H6-hHK2) [1] = biological target: T1, Hexokinase 2 (H6-hHK2) (Homo sapiens, UniProt P52789); test: microscale thermophoresis (RED-Tris-NTA labelled His6-HK2); type: binding
T1 construct: gene HK2; N-terminal His6-tagged human HK2, aa 17-917
T1 sequence (P52789 17-917): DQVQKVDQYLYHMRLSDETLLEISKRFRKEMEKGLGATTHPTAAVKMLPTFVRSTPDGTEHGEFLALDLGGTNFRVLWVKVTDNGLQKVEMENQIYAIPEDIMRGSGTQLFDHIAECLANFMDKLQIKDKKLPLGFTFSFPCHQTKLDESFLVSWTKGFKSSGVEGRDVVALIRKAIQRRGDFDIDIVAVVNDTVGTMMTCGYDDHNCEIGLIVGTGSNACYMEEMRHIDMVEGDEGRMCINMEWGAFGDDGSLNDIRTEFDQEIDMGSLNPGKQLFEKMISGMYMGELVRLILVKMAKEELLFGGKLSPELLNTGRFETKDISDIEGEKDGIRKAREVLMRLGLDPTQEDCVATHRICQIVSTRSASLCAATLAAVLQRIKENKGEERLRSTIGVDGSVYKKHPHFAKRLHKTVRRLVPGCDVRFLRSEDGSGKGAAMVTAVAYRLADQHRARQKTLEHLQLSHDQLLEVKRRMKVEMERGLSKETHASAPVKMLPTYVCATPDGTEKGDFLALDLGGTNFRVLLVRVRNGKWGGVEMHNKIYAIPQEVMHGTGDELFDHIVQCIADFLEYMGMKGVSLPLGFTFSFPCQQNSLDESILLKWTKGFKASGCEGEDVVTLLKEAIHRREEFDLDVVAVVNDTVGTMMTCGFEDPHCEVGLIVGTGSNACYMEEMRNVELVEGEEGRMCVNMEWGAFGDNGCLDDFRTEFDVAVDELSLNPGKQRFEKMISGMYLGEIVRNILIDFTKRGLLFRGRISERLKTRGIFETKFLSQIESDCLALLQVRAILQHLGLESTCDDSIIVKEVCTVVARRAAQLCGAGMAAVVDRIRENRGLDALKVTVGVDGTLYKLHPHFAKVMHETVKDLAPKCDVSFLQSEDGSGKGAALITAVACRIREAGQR

Hexokinase 2 (H6-hHK2) [2] = biological target: T1, Hexokinase 2 (H6-hHK2); test: microscale thermophoresis (RED-Tris-NTA labelled His6-HK2); also inhibits isolated HK2 in kit assay; type: binding
Hexokinase 2 = biological target: T2, Hexokinase 2 (Homo sapiens, UniProt P52789); test: in vitro HK2 Inhibitor Screening Kit (G6PDH-coupled colorimetric), […], positive control; type: biochemical
T2 construct: gene HK2
T2 sequence (P52789 1-917): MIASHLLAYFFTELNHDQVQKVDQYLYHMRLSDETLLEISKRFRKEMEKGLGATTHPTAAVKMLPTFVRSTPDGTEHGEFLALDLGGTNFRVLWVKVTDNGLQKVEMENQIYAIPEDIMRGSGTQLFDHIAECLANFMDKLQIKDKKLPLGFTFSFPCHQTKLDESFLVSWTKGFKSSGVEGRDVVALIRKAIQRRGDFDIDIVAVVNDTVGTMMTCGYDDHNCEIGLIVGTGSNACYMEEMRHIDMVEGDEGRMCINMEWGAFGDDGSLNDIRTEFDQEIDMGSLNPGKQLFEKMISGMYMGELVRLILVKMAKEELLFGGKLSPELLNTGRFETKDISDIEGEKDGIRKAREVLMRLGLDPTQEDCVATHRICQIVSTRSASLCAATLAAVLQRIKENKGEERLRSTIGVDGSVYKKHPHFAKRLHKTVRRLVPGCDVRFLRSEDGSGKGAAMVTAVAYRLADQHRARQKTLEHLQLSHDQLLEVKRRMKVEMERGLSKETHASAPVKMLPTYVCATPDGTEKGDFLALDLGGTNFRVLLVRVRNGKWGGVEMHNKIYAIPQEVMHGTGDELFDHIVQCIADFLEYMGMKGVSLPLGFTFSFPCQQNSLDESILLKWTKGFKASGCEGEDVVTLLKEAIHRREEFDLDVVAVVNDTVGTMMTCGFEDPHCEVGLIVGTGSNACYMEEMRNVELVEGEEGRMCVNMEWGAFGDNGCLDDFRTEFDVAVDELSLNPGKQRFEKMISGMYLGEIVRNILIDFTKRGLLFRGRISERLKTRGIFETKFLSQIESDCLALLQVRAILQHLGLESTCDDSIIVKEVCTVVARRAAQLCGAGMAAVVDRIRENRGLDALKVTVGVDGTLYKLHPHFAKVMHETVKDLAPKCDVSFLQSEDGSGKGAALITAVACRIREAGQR

SMILES	activity at 5 µM (Hexokinase 2)	further results
O=C(N/N=C/c1ccc(O)cc1O)c1ccc([N+](=O)[O-])cc1 [2b, (E)-N′-(2,4-dihydroxybenzylidene)-4-nitrobenzohydrazide]		Kd (Hexokinase 2 (H6-hHK2) [1]): 58.9 µM
O=C(N/N=C/c1ccc(O)c(O)c1O)c1ccc([N+](=O)[O-])cc1 [2a, (E)-N′-(2,3,4-trihydroxybenzylidene)-4-nitrobenzohydrazide]		Kd (Hexokinase 2 (H6-hHK2) [2]): 8.83 to 11 µM
O=C(O)C(=O)CBr [3BP, 3-bromopyruvate]	2.5 ± 0.4%	
OC[C@H]1OC(O)C[C@@H](O)[C@@H]1O (stereo partly shown) [2DG, 2-deoxyglucose]	9.9 ± 0.5%	
